Experimental data reported in ChEMBL document CHEMBL2375284, “Novel hybrids of natural isochroman-4-one bearing N-substituted isopropanolamine as potential antihypertensive candidates” (Bioorg Med Chem, 2013).

Columns and labels:
Rattus norvegicus [1] = test: Antihypertensive activity in rat spontaneous hypertensive model assessed as diastolic arterial blood pressure at 80 mg/kg, po measured at 6 hrs by tail-cuff method (reference value: 141.2 +/- 7.34 mmHg); format: functional, Artery
Rattus norvegicus [2] = test: Toxicity in rat spontaneous hypertensive model assessed as heart rate at 80 mg/kg, po measured at 2 hrs by tail-cuff method (reference value: 399.5 +/- 19.68 bpm); format: organism-based; set-up: dose 80 mg/kg, route oral; conditions: in vivo
Rattus norvegicus [3] = test: Antihypertensive activity in rat spontaneous hypertensive model assessed as mean arterial blood pressure at 80 mg/kg, po measured at 6 hrs by tail-cuff method (reference value: 155.8 +/- 7.97 mmHg); format: functional, Artery
Rattus norvegicus [4] = test: Antihypertensive activity in rat spontaneous hypertensive model assessed as diastolic arterial blood pressure at 80 mg/kg, po measured at 2 hrs by tail-cuff method (reference value: 142.9 +/- 18.07 mmHg); format: functional, Artery
Rattus norvegicus [5] = test: Antihypertensive activity in rat spontaneous hypertensive model assessed as mean arterial blood pressure at 80 mg/kg, po measured at 4 hrs by tail-cuff method (reference value: 154.4 +/- 20.1 mmHg); format: functional, Artery
Rattus norvegicus [6] = test: Toxicity in rat spontaneous hypertensive model assessed as heart rate at 80 mg/kg, po measured at 1 hr by tail-cuff method (reference value: 403.9 +/- 12.41 bpm); format: organism-based; set-up: dose 80 mg/kg, route oral; conditions: in vivo
Rattus norvegicus [7] = test: Toxicity in rat spontaneous hypertensive model assessed as heart rate at 80 mg/kg, po measured at 4 hrs by tail-cuff method (reference value: 403.1 +/- 15.92 bpm); format: organism-based; set-up: dose 80 mg/kg, route oral; conditions: in vivo
Rattus norvegicus [8] = test: Antihypertensive activity in rat spontaneous hypertensive model assessed as mean arterial blood pressure at 80 mg/kg, po measured at 1 hr by tail-cuff method (reference value: 158.9 +/- 13.65 mmHg); format: functional, Artery
Rattus norvegicus [9] = test: Antihypertensive activity in rat spontaneous hypertensive model assessed as systolic arterial blood pressure at 80 mg/kg, po measured at 1 hr by tail-cuff method (reference value: 181.2 +/- 16.37 mmHg); format: functional, Artery
Rattus norvegicus [10] = test: Antihypertensive activity in rat spontaneous hypertensive model assessed as diastolic arterial blood pressure at 80 mg/kg, po measured at 4 hrs by tail-cuff method (reference value: 141.4 +/- 7.11 mmHg); format: functional, Artery
Rattus norvegicus [11] = test: Antihypertensive activity in rat spontaneous hypertensive model assessed as systolic arterial blood pressure at 80 mg/kg, po measured at 8 hrs by tail-cuff method (reference value: 174 +/- 12.1 mmHg); format: functional, Artery
Rattus norvegicus [12] = test: Antihypertensive activity in rat spontaneous hypertensive model assessed as mean arterial blood pressure at 80 mg/kg, po measured at 8 hrs by tail-cuff method (reference value: 155.8 +/- 11.54 mmHg); format: functional, Artery
Rattus norvegicus [13] = test: Antihypertensive activity in rat spontaneous hypertensive model assessed as systolic arterial blood pressure at 80 mg/kg, po measured at 0.5 hrs by tail-cuff method (reference value: 178.5 +/- 10.13 mmHg); format: functional, Artery
Rattus norvegicus [14] = test: Antihypertensive activity in rat spontaneous hypertensive model assessed as systolic arterial blood pressure at 80 mg/kg, po measured at 6 hrs by tail-cuff method (reference value: 176.7 +/- 15.21 mmHg); format: functional, Artery
Rattus norvegicus [15] = test: Antihypertensive activity in rat spontaneous hypertensive model assessed as systolic arterial blood pressure at 80 mg/kg, po measured at 2 hrs by tail-cuff method (reference value: 172.6 +/- 17.3 mmHg); format: functional, Artery
Rattus norvegicus [16] = test: Toxicity in rat spontaneous hypertensive model assessed as heart rate at 80 mg/kg, po measured at 6 hrs by tail-cuff method (reference value: 405.1 +/- 24 bpm); format: organism-based; set-up: dose 80 mg/kg, route oral; conditions: in vivo
Rattus norvegicus [17] = test: Toxicity in rat spontaneous hypertensive model assessed as heart rate at 80 mg/kg, po measured at 0.5 hrs by tail-cuff method (reference value: 406.5 +/- 13.15 bpm); format: organism-based; set-up: dose 80 mg/kg, route oral; conditions: in vivo
Rattus norvegicus [18] = test: Antihypertensive activity in rat spontaneous hypertensive model assessed as mean arterial blood pressure at 80 mg/kg, po measured at 0.5 hrs by tail-cuff method (reference value: 156.2 +/- 7.21 mmHg); format: functional, Artery
Rattus norvegicus [19] = test: Toxicity in rat spontaneous hypertensive model assessed as heart rate at 80 mg/kg, po measured at 8 hrs by tail-cuff method (reference value: 397.2 +/- 24.87 bpm); format: organism-based; set-up: dose 80 mg/kg, route oral; conditions: in vivo
Rattus norvegicus [20] = test: Antihypertensive activity in rat spontaneous hypertensive model assessed as systolic arterial blood pressure at 80 mg/kg, po measured at 4 hrs by tail-cuff method (reference value: 172.9 +/- 10.21 mmHg); format: functional, Artery
Rattus norvegicus [21] = test: Antihypertensive activity in rat spontaneous hypertensive model assessed as diastolic arterial blood pressure at 80 mg/kg, po measured at 8 hrs by tail-cuff method (reference value: 135.3 +/- 8.21 mmHg); format: functional, Artery
Rattus norvegicus [22] = test: Antihypertensive activity in rat spontaneous hypertensive model assessed as mean arterial blood pressure at 80 mg/kg, po measured at 2 hrs by tail-cuff method (reference value: 157.41 +/- 9.62 mmHg); format: functional, Artery
Rattus norvegicus [23] = test: Antihypertensive activity in rat spontaneous hypertensive model assessed as diastolic arterial blood pressure at 80 mg/kg, po measured at 1 hr by tail-cuff method (reference value: 146.2 +/- 13.19 mmHg); format: functional, Artery
Rattus norvegicus [24] = test: Antihypertensive activity in rat spontaneous hypertensive model assessed as diastolic arterial blood pressure at 80 mg/kg, po measured at 0.5 hrs by tail-cuff method (reference value: 138.7 +/- 9.2 mmHg); format: functional, Artery

COc1ccc2c(c1OCC(O)CNC(C)C)COC(C)C2=O (centres undefined)
Activity (Rattus norvegicus [1]): 124.4 mmHg
Activity (Rattus norvegicus [2]): 368.8 bpm
Activity (Rattus norvegicus [3]): 138.9 mmHg
Activity (Rattus norvegicus [4]): 109.5 mmHg
Activity (Rattus norvegicus [5]): 135.4 mmHg
Activity (Rattus norvegicus [6]): 375 bpm
Activity (Rattus norvegicus [7]): 373.2 bpm
Activity (Rattus norvegicus [8]): 133.1 mmHg
Activity (Rattus norvegicus [9]): 170.1 mmHg
Activity (Rattus norvegicus [10]): 117.7 mmHg
Activity (Rattus norvegicus [11]): 166.3 mmHg
Activity (Rattus norvegicus [12]): 137.4 mmHg
Activity (Rattus norvegicus [13]): 175.3 mmHg
Activity (Rattus norvegicus [14]): 168 mmHg
Activity (Rattus norvegicus [15]): 169 mmHg
Activity (Rattus norvegicus [16]): 374.7 bpm
Activity (Rattus norvegicus [17]): 383.4 bpm
Activity (Rattus norvegicus [18]): 144.8 mmHg
Activity (Rattus norvegicus [19]): 372.8 bpm
Activity (Rattus norvegicus [20]): 170.9 mmHg
Activity (Rattus norvegicus [21]): 122.9 mmHg
Activity (Rattus norvegicus [22]): 129.3 mmHg
Activity (Rattus norvegicus [23]): 114.6 mmHg
Activity (Rattus norvegicus [24]): 129.6 mmHg
